Assay results from PubChem BioAssay (NCI).
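96-well plates; 48 h exposure; 5 concentrations. Endpoints by linear interpolation between flanking doses. Not reached: highest tested concentration assigned. GI50 is the concentration that inhibits growth by half. Definition used: TGI = concentration required for complete inhibition of growth.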

Legend:
Assay in all cases: NCI-60 cell line screen, 48 h
[1] = test system: HL-60(TB) leukemia
[2] = test system: HOP-62 NSCLC
[3] = test system: MALME-3M melanoma
[4] = test system: NCI-H23 lung
[5] = test system: SK-MEL-5 melanoma
[6] = test system: HCC-2998 colon
[7] = test system: HCT-116 colon
[8] = test system: MCF7 breast
[9] = test system: OVCAR-4 ovarian
[10] = test system: IGROV1 ovarian

Row | Structure (SMILES) | TGI [1] [µM] | TGI [2] [µM] | TGI [3] [µM] | TGI [4] [µM] | TGI [5] [µM] | TGI [6] [µM] | TGI [7] [µM] | TGI [8] [µM] | TGI [9] [µM] | TGI [10] [µM] | GI50 [1] [nM] | GI50 [2] [nM] | GI50 [3] [µM] | GI50 [4] [µM] | GI50 [5] [µM] | GI50 [6] [nM] | GI50 [7] [nM] | GI50 [8] [nM] | GI50 [9] [µM] | GI50 [10] [µM]
1 | OCC(O)C(O)C(O)C1SC(c2ccccc2)=NN1c1ccccc1 (stereo not given) | > 100 | > 100 | > 100 | > 95.7 | > 100 | > 100 | > 100 | > 100 | > 100 | > 100 | – | – | – | – | – | – | – | – | – | –
2 | C=C1C[C@@H]2C/C=C/C(=O)C/C(C)=C\C=C\C(=O)O[C@H](C=O)C/C(C)=C/[C@H](C1)O2 | 0.781 | 17.3 | 38.4 | 23.1 | 16.6 | 3.32 | 3.86 | 13.6 | 70 | 21.7 | 243 | 1750 | 13.6 | 5.16 | 2.62 | 770 | 370 | 277 | 4.65 | 1.16
3 | S=c1nc(Oc2ccc(Cl)c(Cl)c2)[nH]c(=S)[nH]1 | > 100 | > 67.6 | > 71.3 | > 63.3 | > 55.6 | 37.9 | > 60.9 | > 100 | > 82.2 | > 92.3 | – | – | – | – | – | – | – | – | – | –
4 | C=C1CC[C@@]2(C#N)[C@H]3[C@H](CC[C@@H]2C)[C@@H](C)C[C@@H](CC(C)(C)C#N)[C@H]13 | 29.5 | 24.3 | 40.8 | 32.6 | 12.9 | 20.6 | 11.2 | 15.8 | 41 | 59.4 | 2480 | 2330 | 5.23 | 1.06 | 1.54 | 2950 | 229 | 785 | 2.14 | 4.77
5 | Cc1ccccc1CN1CC2=C(CCN(Cc3ccccc3)C2=O)N2CCN=C12 | > 100 | > 100 | > 100 | > 100 | > 64.7 | > 70.6 | > 100 | > 100 | > 100 | > 100 | – | – | 9.84 | – | – | – | – | – | – | –
6 | c1ccc2[nH]c(SSc3nc4ncncc4[nH]3)nc2c1 | > 100 | > 100 | > 66.1 | > 100 | > 100 | > 100 | > 100 | – | > 100 | 96.2 | 710 | 427 | 2.01 | 2.9 | 3.62 | 1900 | 913 | 295 | 3.64 | 4.48
7 | Cc1ccccc1C(=O)C#Cc1cn(C2CC(O)C(CO)O2)c(=O)[nH]c1=O (stereo not given) | > 100 | > 100 | 35.1 | > 100 | > 100 | > 100 | > 100 | > 100 | > 100 | > 100 | – | – | – | – | – | – | – | – | – | –
8 | COc1cc(Cl)cc(-c2nn(C(=O)NCCN3CCN(C)CC3)cc2-c2ccncc2)c1 | 75.8 | 44.5 | 43.4 | 82 | 16.7 | 39.1 | 31.3 | > 100 | > 100 | > 100 | 25600 | 5870 | 9.28 | 20.1 | 3.76 | 17500 | 14800 | 29400 | 4.35 | 17.8
9 | NCCCC(=O)Nc1ccncc1 | > 100 | > 100 | > 100 | > 100 | > 100 | > 100 | > 100 | > 100 | > 100 | > 100 | > 100000 | > 100000 | > 100 | > 100 | > 100 | > 100000 | > 100000 | > 100000 | > 100 | > 100
10 | O=C(c1cc(F)c(Cl)cc1Cl)N1N=C(c2ccccc2)CC1(O)c1ccccc1 (stereo not given) | 41.2 | 27.6 | 55.6 | 48.2 | 26.9 | 37.8 | 21.7 | 38.2 | 57.8 | 36.7 | 17400 | 13700 | 25.5 | 20.2 | 14 | 16900 | 10100 | 18300 | 17.8 | 15.2
